{"source": "patent US20210363170A1", "about": "“4'-THIO-NUCLEOTIDE AND -NUCLEOSIDE PRODRUGS FOR THE TREATMENT OF CANCER” (Southern Research Institute, priority 2018, published 2021)", "type_in_all_cases": "cell-based", "key": {"CEM cells [1]": {"test_system": "CEM cells", "test": "Nucleoside transporter (hENT-1) activity: CEM cell viability with or without the hENT-1 inhibitor dipyridamole", "conditions": "for IC50: CEM cells, 72 hours", "description": "7.5×10^3 cells/well were plated in a 96 well plate in duplicate. Either compound 2 and Aza-T-dCyd were dosed at a 1:5 10-point serial dilution with a top dose of 5 μM in the presence of 5 μM Dipyridamole (DPD, Sigma Cat #: D9766 CAS 58-32-2), a hENT-1 inhibitor. Cells were cultured in the presence of compound for 72 hours. CellTiter Glo (G9241, Promega) was added to the media of each well and measured by a plate reader (Synergy 4, Biotek). The results were analyzed by GraphPad Prism 7 (GraphPad)."}, "HCT-116 cells": {"test_system": "HCT-116 cells", "test": "Cytidine deaminase (CDA) activity: HCT-116 cell viability with or without the CDA inhibitor tetrahydrouridine", "conditions": "for IC50: HCT-116 cells, 72 hours", "description": "[…] cells/well were plated in a 96 well plate in duplicate. Tetrahydrouridine (THU), a Cytidine Deaminase inhibitor was dosed at 1:5 10-point serial dilution, with a top dose of 100 μM, as a control. […] Cells were cultured in the presence of compound for 72 hours and then assayed by cell titer glow for viability."}, "DNMT-1": {"test_system": "DNMT-1", "test": "Western blot analysis of DNMT-1 in CEM cells", "conditions": "DNMT-1 depletion in CEM cells, 96 hours", "description": "Cells were treated with serial dilutions of each compound (starting 100 uM for HCT-116 and NCI-H23 cells, and 20 uM for KG-1a and CCRF-CEM cells) or with DMSO as control for 96 hours. Cell lysates were collected and proteins were separated with a SDS-PAGE gel, transferred to a nitrocellulose membrane, blocked in 5% non-fat milk in TBS-T, and probed with anti DNMT-1 (1:7000) rabbit polyclonal antibodies (cat #ab19905, Abcam) in 5% non-fat milk in TBS-T overnight. Membranes were washed three times with TBS-T. The anti-rabbit IgG (7074p2, Cell Signaling) secondary antibody was added at a concentration of 1:5000 in 5% non-fat milk in TBS-T for two hours in room temperature. Membranes were then washed three times with TBS-T, 5 minutes each time. Membranes were then incubated with SuperSignal West Pico Chemiluminescent Substrate (#34080 Thermo) and exposed onto film. Membranes were stripped with stripping buffer (#21059, Thermo) and re-probed with mouse anti tubulin 1:10,000 (T9026, Sigma) and anti-mouse IgG 1:5,000 (70′76p2, Cell Signaling)."}, "KG-1a cells": {"test_system": "KG-1a cells", "test": "Cell viability assay (CellTiter Glo, 72 hours) in KG-1a cells", "conditions": "read-out: Cell Line IC50 (μM) KG-1a", "description": "(§1) KG1a (CCL-246.1, ATCC) and CCRF-CEM (CCL-199, ATCC) cells were grown in RPMI-1640 media containing 10% FBS in T-75 flasks to a density of 1×10^6 cells per mL. Exponentially gown cells were used for the assay. Day 1: 7.5×10^3 cells were seeded in each well of 96 well plate. Day 2: Cells were treated with serial dilutions of each compound (starting 20 uM) or with DMSO as control for 72 hours. Day 5: CellTiter Glo (G9241, Promega) was added to the media of each well and measured by plate reader (Synergy 4, Biotek). Data analysis: Using GraphPad Prism 7 (GraphPad)."}, "CEM cells [2]": {"test_system": "CEM cells", "test": "Deoxycytidine kinase (dCK) activity: CEM cell viability with or without 2'-deoxycytidine", "conditions": "for IC50: CEM cells, 72 hours", "description": "7.5×10^3 cells/well were plated in a 96 well plate in duplicate. […] Cells were cultured in the presence of compound for 72 hours. CellTiter Glo (G9241, Promega) was added to the media of each well and measured by a plate reader (Synergy 4, Biotek). The results were analyzed by GraphPad Prism 7 (GraphPad)."}, "CCRF-CEM cells": {"test_system": "CCRF-CEM cells", "test": "Cell viability assay (CellTiter Glo, 72 hours) in CEM cells", "conditions": "read-out: Cell Line IC50 (μM) CEM", "description": "as §1"}}, "note": "Read-outs that look alike come from different tables or passages of the source."}
{"compound": "2-ethylbutyl ((S)-(((2R,3S,5R)-5-(4-amino-2-oxo-1,3,5-triazin-1(2H)-yl)-3-hydroxytetrahydrothiophen-2-yl)methoxy)(phenoxy)phosphoryl)-L-alaninate [Compound 3]", "values": [{"measurement": "IC50", "setting": "CEM cells [1]; with 5 μM dipyridamole (hENT-1 inhibitor), read-out: CEM IC50 (μM) With DPD (5 μM)", "value": 3.1, "unit": "µM"}, {"measurement": "IC50", "setting": "CEM cells [1]; without dipyridamole, read-out: CEM IC50 (μM) Without DPD", "value": 0.35, "unit": "µM"}, {"measurement": "reliance on hENT-1 to enter the cancer cells", "setting": "CEM cells [1]; conclusion in words from Table 3", "value": "does not significantly rely on hENT-1"}, {"measurement": "IC50", "setting": "HCT-116 cells; with 20 μM tetrahydrouridine (CDA inhibitor), read-out: HCT-116 IC50 (μM) With THU (20 μM)", "value": 12, "unit": "µM"}, {"measurement": "IC50", "setting": "HCT-116 cells; without tetrahydrouridine, read-out: HCT-116 IC50 (μM) Without THU", "value": 8, "unit": "µM"}, {"measurement": "overcoming cytidine deaminase compared to parent drug", "setting": "HCT-116 cells; conclusion in words from Table 4", "value": "did overcome CAD"}, {"measurement": "IC50", "setting": "DNMT-1", "value": 620, "unit": "nM"}, {"measurement": "IC50", "setting": "KG-1a cells", "value": 1.5, "unit": "µM"}, {"measurement": "IC50", "setting": "CEM cells [2]; with 20 μM 2'-deoxycytidine (dCK inhibitor), read-out: CEM IC50 (μM) With dCyd (20 μM)", "value": 6.5, "unit": "µM"}, {"measurement": "IC50", "setting": "CEM cells [2]; without 2'-deoxycytidine, read-out: CEM IC50 (μM) Without dCyd", "value": 0.3, "unit": "µM"}, {"measurement": "reliance on dCK activation compared to parent drug", "setting": "CEM cells [2]; conclusion in words from Table 5", "value": "does not rely on dCK activation"}, {"measurement": "IC50", "setting": "CCRF-CEM cells", "value": 0.16, "unit": "µM"}]}
{"compound": "Nc1ncn([C@H]2C[C@H](O)[C@@H](CO)S2)c(=O)n1", "note": "[Aza-T-dCyd, 5-aza-4′-Thio-2′-deoxycytidine, reference compound]", "values": [{"measurement": "IC50", "setting": "CEM cells [1]; Homo sapiens, CCRF-CEM, with 5 μM dipyridamole (hENT-1 inhibitor), read-out: CEM IC50 (μM) With DPD (5 μM)", "value": "> 3", "unit": "µM"}, {"measurement": "IC50", "setting": "CEM cells [1]; Homo sapiens, CCRF-CEM, without dipyridamole, read-out: CEM IC50 (μM) Without DPD", "value": 0.03, "unit": "µM"}, {"measurement": "IC50", "setting": "HCT-116 cells; Homo sapiens, with 20 μM tetrahydrouridine (CDA inhibitor), read-out: HCT-116 IC50 (μM) With THU (20 μM)", "value": 0.7, "unit": "µM"}, {"measurement": "IC50", "setting": "HCT-116 cells; Homo sapiens, without tetrahydrouridine, read-out: HCT-116 IC50 (μM) Without THU", "value": 7, "unit": "µM"}, {"measurement": "IC50", "setting": "DNMT-1", "value": 380, "unit": "nM"}, {"measurement": "IC50", "setting": "KG-1a cells; Homo sapiens", "value": 0.03, "unit": "µM"}, {"measurement": "IC50", "setting": "CEM cells [2]; Homo sapiens, CCRF-CEM, with 20 μM 2'-deoxycytidine (dCK inhibitor), read-out: CEM IC50 (μM) With dCyd (20 μM)", "value": 19, "unit": "µM"}, {"measurement": "IC50", "setting": "CEM cells [2]; Homo sapiens, CCRF-CEM, without 2'-deoxycytidine, read-out: CEM IC50 (μM) Without dCyd", "value": 0.03, "unit": "µM"}, {"measurement": "IC50", "setting": "CCRF-CEM cells; Homo sapiens, CCRF-CEM", "value": 0.03, "unit": "µM"}]}
